Values of other authors, collected in patent EP1694242B1, “PROCESS FOR MAKING PHARMACEUTICAL 7-(2-TRIMETHYLSILYLETHYL) CAMPTOTHECIN FORMULATIONS” (BIONUMERIK PHARMACEUTICALS, INC., priority 2003, dated 2005).

Settings: fraction of the potency of the lactone form; background statement

CC[C@@](O)(C(=O)O)c1cc2n(c(=O)c1CO)Cc1cc3ccccc3nc1-2 [carboxylate form of CPT]
antitumor potency of the carboxylate form relative to the lactone form of CPT: one-tenth
